US10196412B2, “Probe for imaging PARP-1 activity” (The Board of Trustees of the Leland Stanford Junior …, priority 2014, dated 2019)

Key:
[1] = molecular target: T1, PARP-1 (Homo sapiens, UniProt P09874); experiment: PET imaging of tracer retention in animal models of tumor radiation therapy; assay type: in vivo, mice; set-up: endogenous in cells; host or cells: HeLa xenografts and orthotopic MDA-MB-231 tumours in mice
From the text: FIG. 8 illustrates a schematic showing animal studies performed with ^18F-PEG2-NAD (Substrate-based PARP-1 Activity Reporter: ^18F-SuPAR)
FIGS. 9A-9C illustrate the validation of ^18F-SuPAR in mice bearing HeLa tumor xenografts following radiation therapy.
FIGS. 10A-10C illustrate the validation of ^18F-SuPAR in mice bearing orthotopic MDA-MB-231 tumors following radiation therapy.
FIGS. 11A-11D illustrate the validation of PARP-1 as target of ^18F-SuPAR following inhibition by BMN673.
One advantageous tracer probe of the disclosure is an efficient analog of NAD that has been labelled by ^18F-radionuclide for PET imaging. It is contemplated, however, that other radionuclides detectable by PET imaging technology can be used in place of ^18F. Previously unknown relationships between NAD modification and PARP-1 substrate potential have been elucidated to synthesize the tracer, 6N-(triazo-PEG2-^18F)-NAD. This tracer was validated for PARP-1 activity in vivo in two animal models of tumor radiation therapy. […] Results were confirmed ex vivo by autoradiography and immunofluorescence analysis of tumor sections.

[2] = molecular target: T1, PARP-1; experiment: gel-shift assay for in vitro assessment of PARP-1 activity; assay type: biochemical
[3] = molecular target: PARG (Homo sapiens, UniProt Q86W56); experiment: PARG-mediated degradation of PAR formed from probe (gel); assay type: biochemical; details: FIG. 4D
From the text: FIG. 4A illustrates novel substrate-based PARP-1 probes assessed for in vitro PARP-1 activity and PARG-mediated degradation of PAR.

[4] = molecular target: T2, ARH3 (Homo sapiens, UniProt Q9NX46); experiment: ARH3-mediated degradation of PAR formed from probe (gel); assay type: biochemical; details: FIG. 4D
T2 sequence (Q9NX46 1-363): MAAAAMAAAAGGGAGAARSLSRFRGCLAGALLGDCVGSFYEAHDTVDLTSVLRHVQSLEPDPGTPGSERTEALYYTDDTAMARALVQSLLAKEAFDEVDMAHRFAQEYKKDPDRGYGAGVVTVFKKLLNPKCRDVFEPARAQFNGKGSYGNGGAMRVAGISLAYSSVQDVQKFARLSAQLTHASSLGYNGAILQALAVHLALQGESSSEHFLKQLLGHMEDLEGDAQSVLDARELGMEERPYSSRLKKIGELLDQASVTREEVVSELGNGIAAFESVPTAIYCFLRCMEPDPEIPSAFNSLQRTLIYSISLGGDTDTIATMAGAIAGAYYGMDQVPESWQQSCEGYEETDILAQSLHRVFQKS

T1 sequence (P09874 whole entry): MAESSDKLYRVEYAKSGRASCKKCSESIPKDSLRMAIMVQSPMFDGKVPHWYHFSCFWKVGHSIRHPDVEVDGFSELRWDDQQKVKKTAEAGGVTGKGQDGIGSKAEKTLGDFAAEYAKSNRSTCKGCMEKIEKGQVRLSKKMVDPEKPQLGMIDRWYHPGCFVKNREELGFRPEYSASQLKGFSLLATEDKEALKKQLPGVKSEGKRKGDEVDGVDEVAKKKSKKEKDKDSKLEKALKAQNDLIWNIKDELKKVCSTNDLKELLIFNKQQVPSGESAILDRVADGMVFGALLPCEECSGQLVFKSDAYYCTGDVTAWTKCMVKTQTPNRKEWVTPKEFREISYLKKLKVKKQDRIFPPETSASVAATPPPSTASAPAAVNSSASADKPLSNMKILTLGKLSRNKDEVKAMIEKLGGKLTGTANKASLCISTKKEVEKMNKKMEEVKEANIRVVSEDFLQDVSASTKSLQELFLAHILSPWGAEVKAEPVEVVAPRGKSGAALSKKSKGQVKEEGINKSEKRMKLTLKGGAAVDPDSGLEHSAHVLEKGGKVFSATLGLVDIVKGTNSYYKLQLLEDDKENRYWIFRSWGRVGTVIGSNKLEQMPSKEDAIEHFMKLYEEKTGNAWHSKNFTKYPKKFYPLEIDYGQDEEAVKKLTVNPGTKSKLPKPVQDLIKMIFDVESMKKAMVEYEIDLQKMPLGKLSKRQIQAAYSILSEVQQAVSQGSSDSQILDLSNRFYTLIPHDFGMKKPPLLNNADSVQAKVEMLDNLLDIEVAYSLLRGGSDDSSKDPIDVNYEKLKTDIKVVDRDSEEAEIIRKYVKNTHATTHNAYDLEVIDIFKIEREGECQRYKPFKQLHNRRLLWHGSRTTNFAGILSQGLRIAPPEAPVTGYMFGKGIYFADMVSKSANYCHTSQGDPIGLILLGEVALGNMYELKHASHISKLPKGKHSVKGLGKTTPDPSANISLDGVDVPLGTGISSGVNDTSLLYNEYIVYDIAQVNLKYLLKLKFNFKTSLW
Chain of PARG (Q86W56 whole entry, species assumed): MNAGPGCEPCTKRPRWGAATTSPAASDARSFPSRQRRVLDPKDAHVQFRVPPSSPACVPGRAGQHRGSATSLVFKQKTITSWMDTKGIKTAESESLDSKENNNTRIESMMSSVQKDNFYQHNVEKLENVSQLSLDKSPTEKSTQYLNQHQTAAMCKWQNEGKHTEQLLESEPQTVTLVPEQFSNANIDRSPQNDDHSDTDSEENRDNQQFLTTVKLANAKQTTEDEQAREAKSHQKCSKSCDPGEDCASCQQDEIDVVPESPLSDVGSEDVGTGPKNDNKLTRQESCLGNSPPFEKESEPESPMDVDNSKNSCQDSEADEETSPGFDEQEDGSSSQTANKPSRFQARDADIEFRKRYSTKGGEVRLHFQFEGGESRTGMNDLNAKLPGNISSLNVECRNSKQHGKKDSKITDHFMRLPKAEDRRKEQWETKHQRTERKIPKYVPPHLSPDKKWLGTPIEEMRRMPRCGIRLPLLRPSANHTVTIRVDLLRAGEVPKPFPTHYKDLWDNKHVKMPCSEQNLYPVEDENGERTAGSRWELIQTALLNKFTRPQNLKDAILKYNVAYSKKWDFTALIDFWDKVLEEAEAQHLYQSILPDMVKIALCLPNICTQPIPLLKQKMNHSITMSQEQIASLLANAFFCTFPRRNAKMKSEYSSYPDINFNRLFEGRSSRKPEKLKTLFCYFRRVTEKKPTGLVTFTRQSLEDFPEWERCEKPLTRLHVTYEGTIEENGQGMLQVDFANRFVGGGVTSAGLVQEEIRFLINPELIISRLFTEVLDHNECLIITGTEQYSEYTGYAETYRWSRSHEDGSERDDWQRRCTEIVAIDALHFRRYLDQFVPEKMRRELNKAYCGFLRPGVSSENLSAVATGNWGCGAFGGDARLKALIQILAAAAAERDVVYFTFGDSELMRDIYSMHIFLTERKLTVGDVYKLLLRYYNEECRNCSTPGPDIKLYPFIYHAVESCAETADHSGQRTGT

NC(=O)c1ccc[n+](C2OC(COP(=O)(O)OP(=O)(O)OCC3OC(n4cnc5c(NCc6cn(COCC[18F])nn6)ncnc54)C(O)C3O)C(O)C2O)c1 (stereo not shown) [6N-(triazo-PEG2-^18F)-NAD]
tracer retention with increasing doses of radiation ([1]; 0, 5, 10 Gy, two animal models of tumor radiation therapy): dose-dependence of tracer retention was observed | probe target verification using a highly potent PARP-1 inhibitor ([1]; in vivo, confirmed ex vivo by autoradiography and immunofluorescence): verified as PARP-1 | time-dependence of maximal tracer uptake ([1]; two animal models of tumor radiation therapy): tumor-type specific

C#CCNc1ncnc2c1ncn2[C@@H]1O[C@H](COP(=O)(O)OP(=O)(O)OC[C@H]2O[C@@H]([n+]3cccc(C(N)=O)c3)[C@H](O)[C@@H]2O)[C@@H](O)[C@H]1O [LCD11, Nicotinamide 6-N-propargyladenine dinucleotide]
incorporation into high molecular weight PAR ([2]; low percentage ratios of alkyne probe to NAD, FIG. 6B): incorporation into high molecular weight PAR occurs

NC(=O)c1ccc[n+]([C@@H]2O[C@H](COP(=O)(O)OP(=O)(O)OC[C@H]3O[C@@H](n4cnc5c(NCc6cn(CCOCCOCCF)nn6)ncnc54)[C@H](O)[C@@H]3O)[C@@H](O)[C@H]2O)c1 [LCD67]
degradation by PARG [3]: resistance to degradation | degradation by ARH3 [4]: resistance to degradation

Nc1cccc2c(=O)[nH][nH]c(=O)c12 [luminol, reference compound]
inhibition of PARP-1 ([2]; gel, FIG. 2A): inhibits PARP-1
